Measured values taken from publication PMC2871681 (Bioorganic & medicinal chemistry, 2010).
Entries after “also recorded” stand apart in the source; their conditions may differ. Like-named read-outs stand apart in the source and are kept apart here.

How the values were obtained:
mGluR5 [1] = biological target: T1, mGluR5 (Rattus norvegicus, UniProt P31424); experiment: mGluR5 radioligand displacement binding assay with [3H]MPEP; settings: for decrease in binding affinity compared to the phenyl analogue: 17 v. 22, 18 v. 25
T1 sequence (P31424 21-1203): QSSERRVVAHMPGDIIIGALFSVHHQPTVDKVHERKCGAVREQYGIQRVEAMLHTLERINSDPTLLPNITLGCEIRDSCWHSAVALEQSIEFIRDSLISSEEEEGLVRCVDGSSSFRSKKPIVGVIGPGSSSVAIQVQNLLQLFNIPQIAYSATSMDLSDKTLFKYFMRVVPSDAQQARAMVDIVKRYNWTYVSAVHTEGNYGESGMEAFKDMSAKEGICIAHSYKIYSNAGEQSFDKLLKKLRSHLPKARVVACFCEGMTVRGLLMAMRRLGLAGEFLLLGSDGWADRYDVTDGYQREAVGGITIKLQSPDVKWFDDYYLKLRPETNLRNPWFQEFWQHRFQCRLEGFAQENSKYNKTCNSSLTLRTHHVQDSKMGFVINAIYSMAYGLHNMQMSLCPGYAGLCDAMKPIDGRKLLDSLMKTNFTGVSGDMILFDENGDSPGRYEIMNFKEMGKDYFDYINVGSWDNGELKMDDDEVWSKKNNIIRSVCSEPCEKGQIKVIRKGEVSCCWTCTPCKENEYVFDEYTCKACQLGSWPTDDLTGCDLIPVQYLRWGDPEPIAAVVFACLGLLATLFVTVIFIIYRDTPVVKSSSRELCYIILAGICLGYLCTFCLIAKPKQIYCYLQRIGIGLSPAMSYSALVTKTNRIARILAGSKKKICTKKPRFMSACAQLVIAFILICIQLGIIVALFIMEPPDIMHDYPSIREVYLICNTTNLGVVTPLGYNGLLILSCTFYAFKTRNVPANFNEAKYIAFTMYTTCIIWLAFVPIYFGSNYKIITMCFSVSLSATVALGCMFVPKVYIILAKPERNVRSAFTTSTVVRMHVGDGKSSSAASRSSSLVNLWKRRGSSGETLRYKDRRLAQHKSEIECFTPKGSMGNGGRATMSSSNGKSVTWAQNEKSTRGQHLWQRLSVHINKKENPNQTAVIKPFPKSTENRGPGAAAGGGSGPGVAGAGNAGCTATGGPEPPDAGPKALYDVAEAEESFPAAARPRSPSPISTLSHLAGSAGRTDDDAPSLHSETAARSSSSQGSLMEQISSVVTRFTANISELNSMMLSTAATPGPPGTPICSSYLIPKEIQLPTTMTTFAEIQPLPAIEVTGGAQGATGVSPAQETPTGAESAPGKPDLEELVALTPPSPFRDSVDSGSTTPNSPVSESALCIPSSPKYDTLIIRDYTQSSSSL

mGluR5 [2] = biological target: T1, mGluR5; experiment: mGluR5 functional assay, calcium fluorescence; format: cell-based
[3] = read-out: mGluR5 binding affinity Ki±SEM, [3H]MPEP, rat brain membranes or HEK293-T cells transfected with cloned rat mGluR5
[4] = read-out: mGluR5 function (Ca+2 flux) IC50±SEM, inhibition of glutamate-induced calcium mobilization

| decrease in binding affinity compared to the phenyl analogue (mGluR5 [1]) | Compound | Ki (mGluR5 [1]; [3]) | IC50 (mGluR5 [2]; [4]) | further results |
| --- | --- | --- | --- | --- |
|  | Cc1ccc2ccc(-c3cncc(C#N)c3)cc2n1 [compound 30, 5-(2-Methylquinolin-7-yl)nicotinonitrile] |  |  | Ki (mGluR5 [1]): 100 ± 21 nM; IC50 (mGluR5 [2]): 68 ± 5.3 nM |
|  | Cc1ccc2ccc(-c3cnc(Cl)c(C#N)c3)cc2n1 [compound 31, 2-Chloro-5-(2-methylquinolin-7-yl)nicotinonitrile] |  |  | mode of mGluR5 antagonism (full or partial) (mGluR5 [2]; glutamate-induced mGluR5 activity): partial antagonist activity; also recorded: weak partial antagonist |
|  | 2-Phenyl-4-(2-methylbenzo[d]thiazol-5-yl)benzonitrile [compound 25] | 483 ± 98 nM | 6890 ± 1250 nM | increase in binding affinity compared to parent structure 4 (mGluR5 [1]; 25 v. 4): ~ 4 fold |
|  | 2-(Pyridin-3-yl)-4-(2-methylbenzo[d]thiazol-5-yl)benzonitrile [compound 26] | > 10000 nM | > 10000 nM | activity at mGluR5 in words (mGluR5 [1]): completely inactive |
| 15 fold | Cc1nc2cc(-c3ccc(OCc4ccccc4)c(C#N)c3)ccc2s1 [compound 18, 2-Benzoxy-5-(2-methylbenzo[d]thiazol-5-yl)benzonitrile] |  |  |  |
| ~ 10 fold | Cc1ccc2ccc(-c3ccc(OCc4ccccc4)c(C#N)c3)cc2n1 [compound 17, 2-Benzoxy-5-(2-methylquinolin-7-yl)benzonitrile] |  |  |  |
